In patent US20230158001A1, “PHARMACEUTICAL COMPOSITION COMPRISING BENZIMIDAZOLE DERIVATIVE COMPOUND” (HK INNO.N CORPORATION, priority 2020, published 2023):

Experiments:
[1] = Pharmacokinetic interaction of tegoprazan and celecoxib, alone or in combination (Cohort 3); details: for Css,max, Geometric LS Mean: 7 days, N = 13; for effect of co-administration on pharmacokinetic properties: co-administration of tegoprazan and celecoxib compared with administration alone; for AUC: male, human, in vivo
[2] = test system: naproxen-induced peptic ulcer model; test: Anti-ulcer activity in animal model of acute peptic ulcer induced by naproxen; assay type: in vivo, SD rat; details: for ED50: Rattus norvegicus, read-out: ED50 (anti-ulcer efficacy)
Protocol: Specifically, each of tegoprazan (0.1 to 10 mg/kg) and esomeprazole (0.3 to 30 mg/kg) was orally administered to each SD rat that has fasted for 72 hours.

[3] = Pharmacokinetic interaction of tegoprazan and naproxen, alone or in combination (Cohort 1); assay type: in vivo, human (healthy adult males); details: for effect of co-administration on pharmacokinetic properties: co-administration of tegoprazan and naproxen compared with administration alone
[4] = Pharmacokinetic interaction of tegoprazan and aceclofenac, alone or in combination (Cohort 2); details: for effect of co-administration on pharmacokinetic properties: co-administration of tegoprazan and aceclofenac compared with administration alone; for Css,max, Geometric LS Mean: 7 days, N = 16
Protocol: The pharmacokinetic interactions of tegoprazan and aceclofenac when administered alone or in combination were evaluated in healthy adult males.

[5] = clinical; design: dose or concentration left out as unconfirmed
[6] = tegoprazan, Treatment A: 50 mg tegoprazan alone once a day
[7] = tegoprazan, co-administered with celecoxib vs alone
[8] = tegoprazan, co-administered with aceclofenac vs alone
[9] = tegoprazan, co-administered with naproxen vs alone

SMILES: Cc1ccc(-c2cc(C(F)(F)F)nn2-c2ccc(S(N)(=O)=O)cc2)cc1 [Celecoxib, celecoxib, reference compound]
- Css,max, Geometric LS Mean ([1]; celecoxib, Treatment F: 200 mg celecoxib alone twice a day): 1140 ng/mL
- Css,max, Geometric LS Mean ([1]; celecoxib, Treatment G: 50 mg tegoprazan once a day + 200 mg celecoxib twice a day): 1350 ng/mL
- effect of co-administration on pharmacokinetic properties [1]: does not affect the pharmacokinetic properties
- AUC ([1]; 200 mg): 7800 ng·h/mL

SMILES: COc1ccc2nc([S@@+]([O-])Cc3ncc(C)c(OC)c3C)[nH]c2c1 [esomeprazole, reference compound]
- ED50 [2]: 4.12 mg/kg

SMILES: COc1ccc2cc([C@H](C)C(=O)O)ccc2c1 [Naproxen, naproxen, reference compound]
- effect of co-administration on pharmacokinetic properties [3]: does not affect the pharmacokinetic properties
- Css,max, Geometric LS Mean ([3]; naproxen, Treatment B: 500 mg naproxen alone twice a day, 7 days, N = 17): 92.34 ng/mL
- Css,max, Geometric LS Mean ([3]; naproxen, Treatment C: 50 mg tegoprazan once a day + 500 mg naproxen twice a day, 7 days, N = 17): 95.60 ng/mL

SMILES: O=C(O)COC(=O)Cc1ccccc1Nc1c(Cl)cccc1Cl [Aceclofenac, aceclofenac, reference compound]
- effect of co-administration on pharmacokinetic properties [4]: does not affect the pharmacokinetic properties
- AUC [5]: 20100 ng·h/mL

SMILES: Cc1nc2cc(C(=O)N(C)C)cc(O[C@H]3CCOc4cc(F)cc(F)c43)c2[nH]1 [Tegoprazan, (S)-4-(5,7-difluorochroman-4-yloxy)-N,N,2-trimethyl-1H-benzo[d]imidazole-6-carboxamide]
- effect of co-administration on pharmacokinetic properties [1]: does not affect the pharmacokinetic properties
- AUC ([1]; 50 mg): 2990 ng·h/mL
- Css,max, Geometric LS Mean [1, 6]: 663.83 ng/mL
- Css,max, Geometric LS Mean ([1]; tegoprazan, Treatment G: 50 mg tegoprazan once a day + 200 mg celecoxib twice a day): 676.24 ng/mL
- AUCτ, Geometric LS Mean Ratio (Treatment G/Treatment A), Point Estimate [1, 7]: 1.0111
- Css,max, Geometric LS Mean Ratio (Treatment G/Treatment A), Point Estimate [1, 7]: 1.0187
- effect of co-administration on pharmacokinetic properties [4]: does not affect the pharmacokinetic properties
- AUC ([4]; male, human, in vivo, 50 mg): 2680 ng·h/mL
- Css,max, Geometric LS Mean [4, 6]: 562.13 ng/mL
- Css,max, Geometric LS Mean ([4]; tegoprazan, Treatment E: 50 mg tegoprazan once a day + 100 mg aceclofenac twice a day): 529.98 ng/mL
- AUCτ, Geometric LS Mean Ratio (Treatment E/Treatment A), Point Estimate [4, 8]: 1.0269
- Css,max, Geometric LS Mean Ratio (Treatment E/Treatment A), Point Estimate [4, 8]: 0.9428
- effect of co-administration on pharmacokinetic properties [3]: does not affect the pharmacokinetic properties
- AUC ([3]; male, human, in vivo, tegoprazan, Treatment A: 50 mg tegoprazan alone once a day, 7 days, N = 17, read-out: AUCτ, Geometric LS Mean): 2650 ng·h/mL
- Css,max, Geometric LS Mean ([3]; tegoprazan, Treatment A: 50 mg tegoprazan alone once a day, 7 days, N = 17): 512.79 ng/mL
- Css,max, Geometric LS Mean ([3]; tegoprazan, Treatment C: 50 mg tegoprazan once a day + 500 mg naproxen twice a day, 7 days, N = 17): 505.59 ng/mL
- AUCτ, Geometric LS Mean Ratio (Treatment C/Treatment A), Point Estimate [3, 9]: 1.0105
- Css,max, Geometric LS Mean Ratio (Treatment C/Treatment A), Point Estimate [3, 9]: 0.9859
- ED50 [2]: 0.123 mg/kg
- anti-ulcer activity ([2]; naproxen-induced peptic ulcer model, SD rats, oral 0.1 to 10 mg/kg): excellent anti-ulcer activity
